# Reference: patent US9056843B2, “Trifluoromethyl-oxadiazole derivatives and their use in the treatment of disease” (NOVARTIS AG, priority 2011, dated 2015)
# How the values were obtained:
# Assay type in all cases: biochemical
# Human recombinant HDAC4 = Human recombinant HDAC4 (Homo sapiens (Human), UniProt P56524); assay: Test 2: HDAC4 assay (fluorogenic substrate, 5 μM acetyl-Gly-Ala-Lys(ε-trifluoroacetyl)-AMC); conditions: Test 2 (values without asterisk)
# Description: Test 2: HDAC4 Assay Description
# (§1) Control wells with HDAC4 only (positive control) and without HDAC4 (negative control) were included on the microplate. Bovine trypsin (4.5 μl of a 300 nM solution) was added and the plate incubated for additional 15 minutes at room temperature. The plate was placed in a fluorescence microplate reader, and read at an excitation wavelength of 360 nm and an emission wavelength of 450 nm with a 10 nm bandpath. Fluorescence values for all wells containing HDAC4 (positive control and wells with test compound) were corrected by subtracting negative control fluorescence values, and IC50 values were calculated by fitting the dose-response curves to a 4-parameter logistic function.
# [1] = target: Human recombinant full length HDAC1 (Homo sapiens (Human), UniProt Q13547); assay: Test 3: HDAC1 assay; conditions: substrate 5 μM acetyl-Gly-Ala-Lys(acetyl)-AMC
# Chain of Human recombinant full length HDAC1 (Q13547 whole entry): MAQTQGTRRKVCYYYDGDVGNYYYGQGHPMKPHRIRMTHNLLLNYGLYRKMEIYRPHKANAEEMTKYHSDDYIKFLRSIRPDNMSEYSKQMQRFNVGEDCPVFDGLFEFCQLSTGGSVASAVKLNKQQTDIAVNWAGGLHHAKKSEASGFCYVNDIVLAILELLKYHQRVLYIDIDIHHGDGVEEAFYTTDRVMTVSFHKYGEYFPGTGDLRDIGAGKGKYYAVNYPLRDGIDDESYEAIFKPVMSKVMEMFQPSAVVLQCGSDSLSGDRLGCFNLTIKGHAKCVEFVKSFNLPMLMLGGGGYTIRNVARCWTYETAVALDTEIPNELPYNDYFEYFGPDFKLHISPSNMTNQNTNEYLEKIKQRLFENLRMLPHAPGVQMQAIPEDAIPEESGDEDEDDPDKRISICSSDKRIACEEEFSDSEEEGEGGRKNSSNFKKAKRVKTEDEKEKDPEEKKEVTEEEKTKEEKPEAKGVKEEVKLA
# Description: as §1
# Test 3: HDAC1 Assay Description
# A similar assay procedure as described in Test 2 was used for HDAC1. Human recombinant full length HDAC1 expressed in a baculovirus expression system was purchased from BPS BioSciences (San Diego, Calif., U.S.A.). The substrate used in the […] assay was 5 μM of acetyl-Gly-Ala-Lys(acetyl)-AMC.
# [2] = target: Human recombinant full length HDAC6 (Homo sapiens (Human), UniProt Q9UBN7); assay: Test 4: HDAC6 assay; conditions: Test 4; substrate 5 μM acetyl-Gly-Ala-Lys(acetyl)-AMC
# Chain of Human recombinant full length HDAC6 (Q9UBN7 whole entry): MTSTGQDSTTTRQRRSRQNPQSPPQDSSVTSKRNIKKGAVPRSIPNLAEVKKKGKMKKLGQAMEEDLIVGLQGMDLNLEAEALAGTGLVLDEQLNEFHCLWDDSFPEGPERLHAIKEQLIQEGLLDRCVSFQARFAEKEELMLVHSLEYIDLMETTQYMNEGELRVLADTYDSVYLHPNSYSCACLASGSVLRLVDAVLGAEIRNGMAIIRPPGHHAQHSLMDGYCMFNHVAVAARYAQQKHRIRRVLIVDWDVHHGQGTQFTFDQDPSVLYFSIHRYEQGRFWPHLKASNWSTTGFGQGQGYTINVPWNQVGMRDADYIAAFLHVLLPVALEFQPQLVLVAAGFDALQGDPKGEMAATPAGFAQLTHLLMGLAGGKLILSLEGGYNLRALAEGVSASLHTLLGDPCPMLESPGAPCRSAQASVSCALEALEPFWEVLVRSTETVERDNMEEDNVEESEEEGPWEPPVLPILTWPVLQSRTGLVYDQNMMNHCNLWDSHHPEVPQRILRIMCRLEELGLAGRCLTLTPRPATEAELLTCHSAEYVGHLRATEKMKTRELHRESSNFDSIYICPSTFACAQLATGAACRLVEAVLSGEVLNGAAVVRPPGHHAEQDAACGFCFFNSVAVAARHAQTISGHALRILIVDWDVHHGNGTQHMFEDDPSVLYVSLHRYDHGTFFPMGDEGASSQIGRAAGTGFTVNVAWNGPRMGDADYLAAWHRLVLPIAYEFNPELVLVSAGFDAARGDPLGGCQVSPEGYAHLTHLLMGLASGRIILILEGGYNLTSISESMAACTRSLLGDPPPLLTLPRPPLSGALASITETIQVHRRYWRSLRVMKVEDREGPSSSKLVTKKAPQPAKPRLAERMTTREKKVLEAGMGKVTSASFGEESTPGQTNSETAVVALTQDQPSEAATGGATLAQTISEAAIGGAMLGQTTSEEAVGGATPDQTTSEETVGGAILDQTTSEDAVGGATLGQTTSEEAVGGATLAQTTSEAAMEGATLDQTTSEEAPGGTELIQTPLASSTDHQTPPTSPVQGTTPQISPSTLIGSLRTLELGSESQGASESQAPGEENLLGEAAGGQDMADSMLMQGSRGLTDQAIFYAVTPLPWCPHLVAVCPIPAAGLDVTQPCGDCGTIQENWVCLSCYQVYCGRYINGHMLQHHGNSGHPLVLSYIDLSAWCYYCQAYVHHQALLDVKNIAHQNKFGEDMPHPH
# Description: as §1
# Test 4: HDAC6 Assay Description
# A similar assay procedure as described in Test 2 was used for HDAC6. Human recombinant full length HDAC6 expressed in a baculovirus expression system was purchased from BPS BioSciences (San Diego, Calif., U.S.A.). The substrate used in the […] assay was 5 μM of acetyl-Gly-Ala-Lys(acetyl)-AMC.
# Chain of Human recombinant HDAC4 (P56524 2-1084): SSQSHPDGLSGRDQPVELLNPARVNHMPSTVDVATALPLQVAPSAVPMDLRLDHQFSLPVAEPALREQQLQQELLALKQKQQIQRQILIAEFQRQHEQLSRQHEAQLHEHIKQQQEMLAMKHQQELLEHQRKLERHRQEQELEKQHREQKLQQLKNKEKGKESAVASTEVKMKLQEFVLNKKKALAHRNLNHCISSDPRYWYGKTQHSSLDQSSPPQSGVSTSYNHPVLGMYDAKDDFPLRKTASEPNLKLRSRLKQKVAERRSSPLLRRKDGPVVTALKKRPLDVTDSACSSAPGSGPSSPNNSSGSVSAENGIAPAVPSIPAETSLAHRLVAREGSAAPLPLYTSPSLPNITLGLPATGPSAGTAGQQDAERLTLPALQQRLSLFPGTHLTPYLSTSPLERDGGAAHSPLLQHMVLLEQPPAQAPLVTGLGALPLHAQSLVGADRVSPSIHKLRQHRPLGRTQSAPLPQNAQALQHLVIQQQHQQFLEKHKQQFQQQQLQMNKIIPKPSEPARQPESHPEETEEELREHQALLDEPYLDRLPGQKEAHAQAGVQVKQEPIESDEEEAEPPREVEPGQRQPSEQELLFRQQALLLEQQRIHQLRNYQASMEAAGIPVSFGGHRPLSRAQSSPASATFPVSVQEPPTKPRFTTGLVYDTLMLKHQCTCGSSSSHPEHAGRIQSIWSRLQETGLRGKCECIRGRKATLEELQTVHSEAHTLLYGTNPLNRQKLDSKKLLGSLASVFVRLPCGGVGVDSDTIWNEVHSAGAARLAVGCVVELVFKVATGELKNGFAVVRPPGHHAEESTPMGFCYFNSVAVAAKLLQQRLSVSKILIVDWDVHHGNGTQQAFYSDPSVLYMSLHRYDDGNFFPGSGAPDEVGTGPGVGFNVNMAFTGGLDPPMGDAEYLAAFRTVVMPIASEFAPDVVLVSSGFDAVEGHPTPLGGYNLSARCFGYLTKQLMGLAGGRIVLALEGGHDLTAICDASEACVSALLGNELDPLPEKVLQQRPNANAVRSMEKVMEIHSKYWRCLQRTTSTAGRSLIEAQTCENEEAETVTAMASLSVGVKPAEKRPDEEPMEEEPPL
Structure (SMILES),IC50 (Human recombinant HDAC4) [µM],IC50 [1] [µM],IC50 [2] [µM]
"CC(CO)NC(=O)c1ccc(-c2noc(C(F)(F)F)n2)cc1F (stereo not drawn) [Example 91, 2-fluoro-N-(1-hydroxyypropan-2-yl)-4-(5-(trifluoromethyl)-1,2,4-oxadiazol-3-yl)benzamide]",0.5,> 10,5.1
"CN(C)CC(C)(C)NC(=O)c1ccc(-c2noc(C(F)(F)F)n2)cc1 [Example 119, N-(1-(dimethylamino)-2-methylpropan-2-yl)-4-(5-(trifluoromethyl)-1,2,4-oxadiazol-3-yl)benzamide]",0.036,> 10,> 10
"CCCCN(C)C[C@@H](C)NC(=O)c1ccc(-c2noc(C(F)(F)F)n2)cc1 [Example 150, (R)—N-(1-(butyl(methyl)amino)propan-2-yl)-4-(5-(trifluoromethyl)-1,2,4-oxadiazol-3-yl)benzamide]",0.0011,1.2,3.1
"CN1CC[C@@H](NC(=O)c2ccc(-c3noc(C(F)(F)F)n3)cc2)C1 [Example 153, (R)—N-(1-methylpyrrolidin-3-yl)-4-(5-(trifluoromethyl)-1,2,4-oxadiazol-3-yl)benzamide]",0.0036,1.8,3
"CN1CCC[C@@H](NC(=O)c2ccc(-c3noc(C(F)(F)F)n3)cc2)C1 [Example 154, (R)—N-(1-methylpiperidin-3-yl)-4-(5-(trifluoromethyl)-1,2,4-oxadiazol-3-yl)benzamide]",0.11,> 10,7.2
"O=S(=O)(Nc1ccc(Cl)cc1)c1ccc(-c2noc(C(F)(F)F)n2)cc1 [Example 110, N-(4-chlorophenyl)-4-(5-(trifluoromethyl)-1,2,4-oxadiazol-3-yl)benzenesulfonamide]",0.2,> 10,2
"CN1CCC(CNC(=O)c2ccc(-c3noc(C(F)(F)F)n3)cc2)CC1 [Example 49, N-((1-methylpiperidin-4-yl)methyl)-4-(5-(trifluoromethyl)-1,2,4-oxadiazol-3-yl)benzamide]",0.99,> 10,> 10
"CN1CCN(C(=O)Cc2ccc(-c3noc(C(F)(F)F)n3)cc2)CC1 [Example 10, 1-(4-methylpiperazin-1-yl)-2-(4-(5-(trifluoromethyl)-1,2,4-oxadiazol-3-yl)phenvyl)ethanone]",1.3,> 10,5.6
"CN1CCC(NC(=O)c2ccc(-c3noc(C(F)(F)F)n3)cc2)CC1 [Example 38, N-(1-methylpiperidin-4-yl)-4-(5-(trifluoromethyl)-1,2,4-oxadiazol-3-yl)benzamide]",0.3,> 10,3.9
"CN(C)CCNS(=O)(=O)c1ccc(-c2noc(C(F)(F)F)n2)cc1 [Example 98, N-(2-(dimethylamino)ethyl)-4-(5-(trifluoromethyl)-1,2,4-oxadiazol-3-yl)benzenesulfonamide]",0.36,> 10,6.4
"CN(C)C(=O)c1ccc(-c2noc(C(F)(F)F)n2)cc1 [Example 1, N,N-dimethyl-4-(5-(trifluoromethyl)-1,2,4-oxadiazol-3-yl)benzamide]",0.36,> 10,> 10
"CCC(CC)NC(=O)c1ccc(-c2noc(C(F)(F)F)n2)cc1 [Example 30, N-(pentan-3-yl)-4-(5-(trifluoromethyl)-1,2,4-oxadiazol-3-yl)benzamide]",6.4,> 10,> 10
"O=S(=O)(NCCCO)c1ccc(-c2noc(C(F)(F)F)n2)cc1 [Example 116, N-(3-hydroxypropyl)-4-(5-(trifluoromethyl)-1,2,4-oxadiazol-3-yl)benzenesulfonamide]",0.16,> 10,3.1
"C[C@H](CO)NC(=O)c1ccc(-c2noc(C(F)(F)F)n2)cc1 [Example 28, (R)—N-(1-hydroxyypropan-2-yl)-4-(5-(trifluoromethyl)-1,2,4-oxadiazol-3-yl)benzamide]",0.35,> 10,7.7
"CON(C)C(=O)Cc1ccc(-c2noc(C(F)(F)F)n2)cc1 [Example 11, N-methoxy-N-methyl-2-(4-(5-(trifluoromethyl)-1,2,4-oxadiazol-3-yl)phenvyl)acetamide]",1.1,> 10,8.9
"O=C(Nc1ccnc(C(F)(F)F)c1)c1ccc(-c2noc(C(F)(F)F)n2)cc1 [Example 74, 4-(5-(Trifluoromethyl)-1,2,4-oxadiazol-3-yl)-N-(2-(trifluoromethyl)pyridin-4-yl)benzamide]",0.19,> 10,8.6

Structure (SMILES),IC50 (Human recombinant HDAC4) [µM],IC50 [1] [µM],IC50 [2] [µM]
"CC(C)[C@H](CN(C)C)NC(=O)c1ccc(-c2noc(C(F)(F)F)n2)cc1 [Example 84, (R)—N-(1-(dimethylamino)-3-methylbutan-2-yl)-4-(5-(trifluoromethyl)-1,2,4-oxadiazol-3-yl)benzamide]",0.49,> 10,> 10
"Cc1cccc(NS(=O)(=O)c2ccc(-c3noc(C(F)(F)F)n3)cc2)c1 [Example 105, N-m-tolyl-4-(5-(trifluoromethyl)-1,2,4-oxadiazol-3-yl)benzenesulfonamide]",0.27,3.6,0.47
"O=C(c1ccc(-c2noc(C(F)(F)F)n2)cc1)N1CCC(O)C1 (stereo not drawn) [Example 54, (3-hydroxypyrrolidin-1-yl)(4-(5-(trifluoromethyl)-1,2,4-oxadiazol-3-yl)phenvyl)methanone]",2,> 10,> 10
"CCCN(C)C[C@@H](C)NC(=O)c1ccc(-c2noc(C(F)(F)F)n2)cc1 [Example 139, (R)—N-(1-(methyl(propyl)amino)propan-2-yl)-4-(5-(trifluoromethyl)-1,2,4-oxadiazol-3-yl)benzamide]",0.001,4,9.6
"CN1CCC(CNS(=O)(=O)c2ccc(-c3noc(C(F)(F)F)n3)cc2)C1 (stereo not drawn) [Example 115, N-((1-methylpyrrolidin-3-yl)methyl)-4-(5-(trifluoromethyl)-1,2,4-oxadiazol-3-yl)benzenesulfonamide]",2.7,> 10,> 10
"CC(CNC(=O)c1ccc(-c2noc(C(F)(F)F)n2)cc1F)N(C)C (stereo not drawn) [Example 122, N-(2-(dimethylamino)propyl)-2-fluoro-4-(5-(trifluoromethyl)-1,2,4-oxadiazol-3-yl)benzamide]",0.085,9,2.4
"CCN(CC)C[C@H](C)NC(=O)c1ccc(-c2noc(C(F)(F)F)n2)cc1F [Example 127, (S)—N-(1-(diethylamino)propan-2-yl)-2-fluoro-4-(5-(trifluoromethyl)-1,2,4-oxadiazol-3-yl)benzamide]",0.044,> 10,> 10
"CNC(=O)c1ccc(-c2noc(C(F)(F)F)n2)cc1 [Example 2, N-Methyl-4-(5-(trifluoromethyl)-1,2,4-oxadiazol-3-yl)benzamide]",0.53,> 10,3.2
"CN(C)C(=O)CNC(=O)c1ccc(-c2noc(C(F)(F)F)n2)cc1 [Example 52, N-(2-(dimethylamino)-2-oxoethyl)-4-(5-(trifluoromethyl)-1,2,4-oxadiazol-3-yl)benzamide]",3.2,> 10,> 10
"C[C@@H](CN(C)C)NC(=O)c1ccc(-c2noc(C(F)(F)F)n2)cc1 [Example 82, (S)—N-(1-(dimethylamino)propan-2-yl)-4-(5-(trifluoromethyl)-1,2,4-oxadiazol-3-yl)benzamide]",0.12,> 10,> 10
"CNC(=O)CNC(=O)c1ccc(-c2noc(C(F)(F)F)n2)cc1 [Example 63, N-(2-(methylamino)-2-oxoethyl)-4-(5-(trifluoromethyl)-1,2,4-oxadiazol-3-yl)benzamide]",0.78,> 10,> 10
"CCN(C)C(=O)c1ccc(-c2noc(C(F)(F)F)n2)cc1 [Example 14, N-ethyl-N-methyl-4-(5-(trifluoromethyl)-1,2,4-oxadiazol-3-yl)benzamide]",0.9,> 10,> 10
"O=C(c1ccc(-c2noc(C(F)(F)F)n2)cc1)N1CCC(Cc2ccccc2)CC1 [Example 43, (4-benzylpiperidin-1-yl)(4-(5-(trifluoromethyl)-1,2,4-oxadiazol-3-yl)phenvyl)methanone]",0.29,> 10,> 10
"O=C(N[C@H]1CCNC1)c1ccc(-c2noc(C(F)(F)F)n2)cc1 [Example 87, (S)—N-(pyrrolidin-3-yl)-4-(5-(trifluoromethyl)-1,2,4-oxadiazol-3-yl)benzamide]",0.3,,
"CCCN(CCC)C[C@@H](C)NC(=O)c1ccc(-c2noc(C(F)(F)F)n2)cc1 [Example 137, (R)—N-(1-(dipropylamino)propan-2-yl)-4-(5-(trifluoromethyl)-1,2,4-oxadiazol-3-yl)benzamide]",,2.2,3
